Source: patent publication US8957074B2 (Novartis AG, priority 2010, dated 2015)
Like-named read-outs stand apart in the source and are kept apart here.

What was measured:
CDK4/cyclin D1 = CDK4/cyclin D1 (Homo sapiens (Human), UniProt P11802); test: CDK4/cyclin D1 enzymatic activity assay (TR-FRET, phosphorylation of pRb at Ser780); format: biochemical
Summary of the method: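 Phosphorylation at pRb Ser780, detected by TR-FRET, gave IC50s and kinetics. Enzyme: baculovirus/Sf21-expressed human CDK4/cyclin D1. ATP at 3 μM initiated the reaction; EDTA (pH 8.0) stopped it after 60 min at 22° C.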

[1] = tested on: phosphorylation of pRb at the Ser780 site in JeKo-1 mantle cell lymphoma cells; test: CDK4 cellular assay: ELISA of pRb phosphorylation at Ser780 in JeKo-1 cells; format: cell-based
CDK1/cyclin B = CDK1/cyclin B (Homo sapiens (Human), UniProt P06493); test: CDK1/cyclin B enzymatic activity assay (IMAP-FP); format: biochemical; conditions: 100 nM Tamra Histone-H1 peptide, 20 μM ATP, 120 min at room temperature, read-out: Biochemical CDK1 enzyme IC50
Chain of CDK1/cyclin B (P06493 whole entry, species assumed): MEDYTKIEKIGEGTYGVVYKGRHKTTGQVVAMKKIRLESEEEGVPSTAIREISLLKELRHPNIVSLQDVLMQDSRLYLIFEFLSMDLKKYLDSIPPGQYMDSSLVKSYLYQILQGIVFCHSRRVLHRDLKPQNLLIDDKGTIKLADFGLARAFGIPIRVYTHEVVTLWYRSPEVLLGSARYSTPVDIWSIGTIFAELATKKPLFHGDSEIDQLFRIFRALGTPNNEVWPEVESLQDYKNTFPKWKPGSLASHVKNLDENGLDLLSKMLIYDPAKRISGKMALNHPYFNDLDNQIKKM
Chain of CDK1/cyclin B (P14635 whole entry partner, species assumed): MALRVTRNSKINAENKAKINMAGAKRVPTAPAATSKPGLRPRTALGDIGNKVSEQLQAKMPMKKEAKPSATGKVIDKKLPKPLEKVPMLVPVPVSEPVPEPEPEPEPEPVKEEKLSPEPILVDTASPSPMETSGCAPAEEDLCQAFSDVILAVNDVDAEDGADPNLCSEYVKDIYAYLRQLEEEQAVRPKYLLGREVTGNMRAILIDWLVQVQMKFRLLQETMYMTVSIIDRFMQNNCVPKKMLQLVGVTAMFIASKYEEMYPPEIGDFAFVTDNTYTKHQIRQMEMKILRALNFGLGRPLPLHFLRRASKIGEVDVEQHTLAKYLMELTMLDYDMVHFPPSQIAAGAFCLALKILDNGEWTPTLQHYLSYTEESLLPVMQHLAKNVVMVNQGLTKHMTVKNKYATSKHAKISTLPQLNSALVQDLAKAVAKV
Source text: CDK1/Cyclin B Enzymatic Activity Assay
A 384-well microtiter IMAP-FP™ (Molecular Devices Trade Mark Technology) endpoint assay was used for CDK1/cyclin B kinase activity measurements. The same assay was used for IC50 determination of small molecule inhibitors.

[2] = 0.3 nM CDK4/cyclin D1, 150 nM biotin-pRb (773-924), 3 μM ATP, 60 min at 22° C., read-out: Biochemical CDK4 enzyme IC50
[3] = Homo sapiens, JeKo-1, read-out: Cellular ppRb inhibition IC50
[4] = Homo sapiens, JeKo-1, read-out: Normalized cellular ppRb inhibition IC50
[5] = Homo sapiens, JeKo-1, JeKo-1 cells, p-pRb % inhibition adjusted with total pRb levels, read-out: Normalized cellular ppRb inhibition IC50
[6] = Homo sapiens, JeKo-1, JeKo-1 cells, p-pRb Ser780 ELISA, non-normalized, read-out: Cellular ppRb inhibition IC50
[7] = JeKo-1 cells, p-pRb % inhibition adjusted with total pRb levels, read-out: Normalized cellular ppRb inhibition IC50
[8] = JeKo-1 cells, p-pRb Ser780 ELISA, non-normalized, read-out: Cellular ppRb inhibition IC50
[9] = Homo sapiens, JeKo-1 cells, p-pRb % inhibition adjusted with total pRb levels, read-out: Normalized cellular ppRb inhibition IC50
[10] = Homo sapiens, JeKo-1 cells, p-pRb Ser780 ELISA, non-normalized, read-out: Cellular ppRb inhibition IC50

Chain of CDK4/cyclin D1 (P11802 whole entry): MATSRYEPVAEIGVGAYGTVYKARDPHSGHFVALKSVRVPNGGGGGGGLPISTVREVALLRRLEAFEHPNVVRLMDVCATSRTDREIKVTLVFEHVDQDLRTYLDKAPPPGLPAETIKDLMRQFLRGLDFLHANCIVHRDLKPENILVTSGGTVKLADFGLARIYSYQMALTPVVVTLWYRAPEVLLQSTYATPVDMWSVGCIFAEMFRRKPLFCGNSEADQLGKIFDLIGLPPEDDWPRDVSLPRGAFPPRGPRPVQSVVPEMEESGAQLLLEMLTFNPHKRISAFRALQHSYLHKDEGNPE
Chain of CDK4/cyclin D1 (P24385 whole entry partner): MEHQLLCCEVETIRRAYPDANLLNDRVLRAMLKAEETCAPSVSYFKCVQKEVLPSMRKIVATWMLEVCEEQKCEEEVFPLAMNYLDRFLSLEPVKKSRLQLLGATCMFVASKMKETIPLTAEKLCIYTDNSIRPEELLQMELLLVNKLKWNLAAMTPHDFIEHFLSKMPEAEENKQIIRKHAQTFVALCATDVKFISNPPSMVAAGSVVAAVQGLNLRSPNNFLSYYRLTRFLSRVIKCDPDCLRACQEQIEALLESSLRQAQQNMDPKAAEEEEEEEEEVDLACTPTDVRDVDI

| SMILES | IC50 (CDK4/cyclin D1; [2]) | IC50 (CDK1/cyclin B; […] CDK1/cyclin B) | IC50 [1, 9] | IC50 [1, 10] | further results |
| --- | --- | --- | --- | --- | --- |
| CN(C)C(=O)c1cc2cnc(Nc3ccc(N4CCCC5(CCNCC5)C4=O)cn3)nc2n1C1CCCC1 [Example 114, 7-Cyclopentyl-2-[5-(1-oxo-2,9-diaza-spiro[5,5]undec-2-yl)-pyridin-2-ylamino]-7H-pyrrolo[2,3-d]pyrimidine-6-carboxylic acid dimethylamide] | 0.19 µM | – | – | – | IC50 [1, 3]: 1.35 µM; IC50 [1, 4]: 7.1 µM; IC50 (CDK1/cyclin B; 0.25 nM CDK1/cyclin B): > 15 µM |
| CN(C)C(=O)c1cc2cnc(Nc3ccc(N4CCN5CCCC5C4=O)cn3)nc2n1C1CCCC1 (stereo not shown) [Example 115] | 0.02 to 0.051 µM | – | – | – | IC50 [1, 5]: 0.369 to 0.407 µM; IC50 [1, 6]: 0.135 to 0.306 µM; IC50 (CDK1/cyclin B; 0.25 nM CDK1/cyclin B): > 15 µM |
| CN(C)C(=O)c1cc2cnc(Nc3ccc(N4CCN5CCCC5C4)cn3)nc2n1C1CCCC1 (stereo not shown) [Example 116, 7-cyclopentyl-2-(5-(hexahydropyrrolo[1,2-a]pyrazin-2(1H)-yl)pyridin-2-ylamino)-N,N-dimethyl-7H-pyrrolo[2,3-d]pyrimidine-6-carboxamide] | 0.11 µM | > 15 µM | – | – | IC50 [1, 3]: 0.604 µM; IC50 [1, 4]: 0.605 µM |
| CN(C)C(=O)c1cc2cnc(Nc3ccc(N4CCC5(CCNCC5)C4=O)cn3)nc2n1C1CCCC1 [Example 117, 7-cyclopentyl-N,N-dimethyl-2-(5-(1-oxo-2,8-diazaspiro[4.5]decan-2-yl)pyridin-2-ylamino)-7H-pyrrolo[2,3-d]pyrimidine-6-carboxamide] | 0.007 to 0.009 µM | > 15 µM | – | – | IC50 [1, 7]: 0.051 to 0.082 µM; IC50 [1, 8]: 0.04 to 0.067 µM |
| CN(C)C(=O)c1cc2cnc(Nc3ccc(N4CC5(CC4=O)CC4CCC(C5)N4)cn3)nc2n1C1CCCC1 (stereo not shown) [Example 118, 7-cyclopentyl-N,N-dimethyl-2-(5-(5′-oxo-8-azaspiro[bicyclo[3.2.1]octane-3,3′-pyrrolidine]-1′-yl)pyridin-2-ylamino)-7H-pyrrolo[2,3-d]pyrimidine-6-carboxamide] | 0.005 to 0.014 µM | > 15 µM | 0.047 to 0.153 µM | 0.034 to 0.147 µM | – |
| CN(C)C(=O)c1cc2cnc(Nc3ccc(N4CC5(CCNCC5)OC4=O)cn3)nc2n1C1CCCC1 [Example 119, 7-cyclopentyl-N,N-dimethyl-2-(5-(2-oxo-1-oxa-3,8-diazaspiro[4.5]decan-3-yl)pyridin-2-ylamino)-7H-pyrrolo[2,3-d]pyrimidine-6-carboxamide] | 0.012 µM | > 15 µM | 0.072 to 0.083 µM | 0.026 to 0.047 µM | – |
| CN(C)C(=O)c1cc2cnc(Nc3ccc(N4CC5(CC4=O)CC4CCC(C5)N4)cn3)nc2n1C1CCCOC1 (stereo not shown) [Example 120, N,N-dimethyl-2-(5-(5′-oxo-8-azaspiro[bicyclo[3.2.1]octane-3,3′-pyrrolidine]-1′-yl)pyridin-2-ylamino)-7-(tetrahydro-2H-pyran-3-yl)-7H-pyrrolo[2,3-d]pyrimidine-6-carboxamide] | 0.066 µM | > 15 µM | 1.03 µM | 0.677 µM | – |
| CN(C)C(=O)c1cc2cnc(Nc3ccc(N4CCC5(CCCN5)C4=O)cn3)nc2n1C1CCCOC1 (stereo not shown) [Example 121, N,N-dimethyl-2-(5-(6-oxo-1,7-diazaspiro[4.4]nonan-7-yl)pyridin-2-ylamino)-7-(tetrahydro-2H-pyran-3-yl)-7H-pyrrolo[2,3-d]pyrimidine-6-carboxamide] | 0.079 to 0.107 µM | > 15 µM | 0.199 to 0.791 µM | 0.184 to 0.489 µM | – |
| CN(C)C(=O)c1cc2cnc(Nc3ccc(N4CC5CCC(CC4=O)N5)cn3)nc2n1C1CCCC1 (stereo not shown) [Example 122, 7-Cyclopentyl-2-[5-(4-oxo-3,9-diaza-bicyclo[4.2.1]non-3-yl)-pyridin-2-ylamino]-7H-pyrrolo[2,3-d]pyrimidine-6-carboxylic acid dimethylamide] | – | > 15 µM | – | – | IC50 (CDK4/cyclin D1): 0.005 to 0.01 µM; IC50 [1, 7]: 0.014 µM; IC50 [1, 8]: 0.009 µM |
| CN(C)C(=O)c1cc2cnc(Nc3ccc(N4C[C@H]5CC[C@@H](CC4=O)N5)cn3)nc2n1C1CCCC1 [Example 123, 7-Cyclopentyl-2-[5-((1R,6S)-4-oxo-3,9-diaza-bicyclo[4.2.1]non-3-yl)-pyridin-2-ylamino]-7H-pyrrolo[2,3-d]pyrimidine-6-carboxylic acid dimethylamide] | 0.003 µM | 29.3 µM | – | – | IC50 [1, 5]: 0.008 to 0.099 µM; IC50 [1, 6]: 0.005 to 0.016 µM |
